# Source: patent US8859578B2, “Natural product derivatives with antiprotozoal activity” (Radix Pharmaceuticals, Inc., priority 2012, dated 2014)
# “And” between values parts separate entries of the source, which are not always exact repeats. Identical values can stand only once. Like-named read-outs stand apart in the source and are kept apart here.
# Legend:
# P. falciparum K1 = test: In vitro blood stage antimalarial activity, [3H]hypoxanthine uptake; type: cell-based; conditions: Plasmodium falciparum
# Description: (§1) In Vitro Blood Stage Antimalarial Efficacy Evaluation. New compounds were tested against a panel of strains of P. falciparum.
# (§2) Test compounds were initially dissolved in DMSO and diluted 400 fold in RPMI 1640 culture medium supplemented with 25 mM Hepes, 32 mM NaHCO3 and 10% Albumax I (Gibco, NY). These solutions were subsequently serially diluted two-fold with a Beckman Biomek® 1000 Robot (Fullerton, Calif.) over 11 different concentrations. The parasites were exposed to serial dilutions of each compound for 48 hrs and incubated at 37° C. with 5% O2, 5% CO2 and 90% N2 prior to the addition of [^3H]hypoxanthine. After a further incubation of 18 hrs, parasite DNA was harvested from each microtiter well using Packard Filtermate™ 196 Harvester (Meriden, Conn.) onto glass filters. Uptake of [^3H]hypoxanthine was measured with a Packard TopCount Liquid Scintillation Counter (Packard Instrument Co.).
# rodent P. berghei = test: Antimalarial potency (MCD, MCureD) and therapeutic indices, rodent P. berghei; type: in vivo
# Description: Antimalarial potency was measured by determination of the MCD (minimum clearance dose), a commonly used efficacy measurement. The primary therapeutic indices, which were obtained by using the MCDs as the effective parameters, were calculated. A secondary therapeutic indices measure of antimalarial potency was determined by use of the dose for the MCureD (minimum curative dose).
# Plasmodium cynomolgi = test: Radical curative activity in relapsed Rhesus monkeys; type: in vivo; conditions: for Monkeys cured: co-administered with chloroquine, two monkeys; for Days post-treatment (to relapse): with CQ 10 mg/kg/day for 7 days, one value per monkey
# Description: Compounds with antihypnozoite activity will delay the relapse or radically cure the infection. […] Relapse was expected in the control group. Relapse in the treated group indicates failure of the test compounds. […] Relapse in experimental animals and the second relapse of the control monkeys were treated with the standard 7 day oral CQ and primaquine (1.78 mg base/kg).
# P. falciparum TM6 = test: In vitro blood stage antimalarial activity, [3H]hypoxanthine uptake; type: cell-based; conditions: Plasmodium falciparum
# Description: as §1, §2
# P. falciparum DD2 = test: as above; type: cell-based; conditions: Plasmodium falciparum
# Description: as §1, §2
# P. falciparum TM4 = test: as above; type: cell-based; conditions: Plasmodium falciparum
# Description: as §1, §2
# P. falciparum 3D7 = test: as above; type: cell-based; conditions: Plasmodium falciparum
# Description: as §1, §2
# P. falciparum PH3 = test: as above; type: cell-based; conditions: Plasmodium falciparum
# Description: as §1, §2
# P. falciparum V1S = test: microbe, parasite or virus in culture; type: cell-based; conditions: Plasmodium falciparum
# Description: as §1, §2
# [1] = tested on: Liver Stage of P. yoelii yoelii; test: In vitro liver-stage antimalarial efficacy; type: cell-based; conditions: Plasmodium yoelii
# Description: In Vitro Liver-Stage Antimalarial Efficacy Evaluation. Any new desirable antimalarial drug should be broad spectrum: it should be active against both the blood stage and the liver stage of the parasite. New compounds were assessed on the Plasmodium yoelii liver stage in vitro. The liver stage of P. yoelii is a parasite of rodent extensively used as an experimental model for studying the initial phase of the malaria infection.
# [2] = tested on: chloroquine-resistant FVO strain of P. falciparum; test: Efficacy against blood stages of P. falciparum in Aotus monkeys; type: in vivo; conditions: oral for 3 days
# Description: In Vivo Efficacy Studies in Aotus Monkey Model. The monkeys selected for the study had active infections of the chloroquine-resistant FVO strain of P. falciparum.
# Malaria-naive Panamanian owl monkeys (Aotus lemurinus lemurinus) were used as hosts for chioroquine-resistant P. falciparum. The chloroquine-resistant Vietnam Smith strain was used in the initial experiments. In subsequent studies, a recrudescent isolate from a Vietnam Smith strain infected Aotus monkey treated with chloroquine was used.
# The inoculum size produced a parasitemia of at least 5×10^3/mm^3 by the fifth day postinoculation, at which time treatment was begun. Stock solutions of water-soluble drug were prepared at appropriate concentrations and maintained at 4° C. during the course of treatment. A suspension of water-insoluble drugs was prepared in 0.3% methylcellulose just prior to use. All drugs were administered by gastric intubation in a volume of 7.0 ml, followed by a 7.0-mi rinse with either water or 0.3% methylcellulose. Test drug was given orally for either three or seven consecutive days. […]
# Giemsa-stained blood smears were prepared from all animals and examined daily beginning the day after inoculation until parasitemia was cleared and for at least seven days thereafter. […] Ten or less parasites on a thick blood film were recorded as <10. Parasitemia was enumerated and expressed as number of parasites/mm^3. […]
# in vivo = conditions: Sprague-Dawley, rat, po
# Plasmodium berghei = test: Oral prophylactic test in mice; type: in vivo
# [3] = tested on: Plasmodium cynomolgi sporozoite; test: Causal prophylactic activity in P. cynomolgi sporozoite-challenged Rhesus monkeys; type: in vivo; conditions: PO 15 mg/kg, 1 daily for 3 days
# Description: Two monkeys were used in each test group. The control animals developed parasitemia in about 10 days after inoculation of about 1×10^6 P. cynomolgi sporozoites harvested from Anopheles dirus. All the monkeys received three treatments, once a day for three consecutive days beginning a day before (−1, 0, +1) the sporozoites challenge. The control monkeys (group 1) received HECT and the experimental animals received testing compound by using 8 Fr., 15-in. long nasogastric tubes.
compound,measurement,setting,value
CCN(CC)Cc1cc(Nc2ccnc3cc(Cl)ccc23)ccc1O [Amodiaquine],IC50,P. falciparum K1; read-out: IC50,21.2 ± 2.1 nM
C[C@H]1[C@H](OC(=O)CCC(=O)O)O[C@@H]2O[C@@]3(C)CC[C@H]4[C@H](C)CC[C@@H]1[C@@]24OO3 [Artesunate],MCureD (minimum curative dose),rodent P. berghei; route of administration iv,25.4 mg/kg
"CCN(CC)CCCC(C)Nc1ccnc2cc(Cl)ccc12 (stereo not drawn) [Chloroquine, reference compound]",Results (radical curative test),"Plasmodium cynomolgi; Rhesus monkeys, chloroquine alone, 10 mg/kg/day for 7 days",relapse
same,MCureD (minimum curative dose),rodent P. berghei; administered orally,None
same,IC50,P. falciparum TM6,96.4 ± 6.9 nM
same,IC50,P. falciparum K1,166 ± 19.3 nM
same,IC50,P. falciparum DD2,45.8 ± 10.2 nM
same,IC50,P. falciparum TM4,115 ± 12.7 nM
same,IC50,P. falciparum 3D7,9.7 ± 3.4 nM
same,IC50,P. falciparum PH3,33.4 ± 9.1 nM
same,IC50,P. falciparum V1S,152 ± 14.1 nM
COc1cc2c(c3cc4c(nc13)C=C[C@@]1([C@H]3CC([C@H](O)[C@@H](N)C(C)C)OCO3)C=CCOC41)[C@@H]1OCOC[C@]1(C)N2 (stereo partly drawn) [Formula A],IC50,[1],6.2 nM
same,Monkeys cured,Plasmodium cynomolgi; 15 mg/kg/day level,one out of two monkeys
same,Monkeys cured,Plasmodium cynomolgi; 30 mg/kg/day level,both monkeys
same,Days post-treatment (to relapse),"Plasmodium cynomolgi; Rhesus monkeys, PO 15 mg/kg 1 daily for 3 days",44 days and no relapse
same,Days post-treatment (to relapse),"Plasmodium cynomolgi; Rhesus monkeys, PO 30 mg/kg 1 daily for 3 days",no relapse
same,dosage needed to cure 50% of animals,[2],2 mg/kg/day
same,dosage needed to cure 100% of animals,[2],8 mg/kg/day
same,MCureD (minimum curative dose),rodent P. berghei; administered orally,12.6 mg/kg
same,NOAEL at 2 weeks,in vivo,> 100 mg/kg/day
same,MTD at 2 weeks,in vivo; MTD (maximum tolerated dose),> 500 mg/kg
same,IC50,P. falciparum TM6; read-out: IC50,0.27 ± 0.05 nM
same,IC50,P. falciparum K1; read-out: IC50,0.35 ± 0.06 nM
same,IC50,P. falciparum DD2; read-out: IC50,0.17 ± 0.04 nM
same,IC50,P. falciparum TM4; read-out: IC50,0.41 ± 0.09 nM
same,IC50,P. falciparum 3D7; read-out: IC50,0.12 ± 0.03 nM
same,IC50,P. falciparum PH3; read-out: IC50,0.27 ± 0.05 nM
same,Mice infected and treated/Mice surviving day 60,"Plasmodium berghei; day of treatment 1, dose 0.5 mg/kg oral",5/5
same,Mice infected and treated/Mice surviving day 60,"Plasmodium berghei; day of treatment 1, dose 2 mg/kg oral",5/5
same,Mice infected and treated/Mice surviving day 60,"Plasmodium berghei; day of treatment 1, dose 8 mg/kg oral",5/5
same,Mice infected and treated/Mice surviving day 60,"Plasmodium berghei; day of treatment 1, dose 32 mg/kg oral",5/5
same,Mice infected and treated/Mice surviving day 60,"Plasmodium berghei; day of treatment 2, dose 0.5 mg/kg oral",5/5
same,Mice infected and treated/Mice surviving day 60,"Plasmodium berghei; day of treatment 2, dose 2 mg/kg oral",5/5
same,Mice infected and treated/Mice surviving day 60,"Plasmodium berghei; day of treatment 2, dose 8 mg/kg oral",5/5
same,Mice infected and treated/Mice surviving day 60,"Plasmodium berghei; day of treatment 2, dose 32 mg/kg oral",5/5
same,Mice infected and treated/Mice surviving day 60,"Plasmodium berghei; day of treatment −1, dose 0.5 mg/kg oral",5/5
same,Mice infected and treated/Mice surviving day 60,"Plasmodium berghei; day of treatment −1, dose 2 mg/kg oral",5/5
same,Mice infected and treated/Mice surviving day 60,"Plasmodium berghei; day of treatment −1, dose 8 mg/kg oral",5/5
same,Mice infected and treated/Mice surviving day 60,"Plasmodium berghei; day of treatment −1, dose 32 mg/kg oral",5/5
same,Mice infected and treated/Mice surviving day 60,"Plasmodium berghei; day of treatment −2, dose 0.5 mg/kg oral",5/5
same,Mice infected and treated/Mice surviving day 60,"Plasmodium berghei; day of treatment −2, dose 2 mg/kg oral",5/5
same,Mice infected and treated/Mice surviving day 60,"Plasmodium berghei; day of treatment −2, dose 8 mg/kg oral",5/5
same,Mice infected and treated/Mice surviving day 60,"Plasmodium berghei; day of treatment −2, dose 32 mg/kg oral",5/5
same,Protection from malaria (oral prophylactic activity),"Plasmodium berghei; mice, single dose of 0.5 mg/kg within 2 days pre-infection through 2 days post-infection",completely protected from malaria
same,IC50,P. falciparum V1S,0.21 ± 0.03 nM
same,Delay of patency compared with untreated control monkeys,[3],delayed patency of treated monkeys more than a month
same,Parasite patency (days postinoculation),"[3]; one value per monkey, control 8 days, 15 mg/kg",42 days and 60 days
"COc1cc(NC(C)CCCN)c2ncccc2c1 (stereo not drawn) [Primaquine, reference compound]",IC50,[1],76 nM
